According to the NIST ThermoML archive (doi:10.1021/acs.jced.8b00560):
Numbers after ± are expanded uncertainties.

Conditions: Crystal; DSC

O=C(O)c1ccccc1 [benzoic acid]
Triple point temperature: 392.5 ± 3.1 K

NC(=O)c1cccnc1 [3-pyridinecarboxamide]
Triple point temperature: 398.5 ± 3.1 K
